Columns and labels:
Format in all cases: cell-based
[1] = test system: FAK, p-FAK, p44/42erk-1/2, p-p44/42erk-1/2 in α5β1+ OV-MZ-6 cells; experiment: Western blot of FAK and p44/42erk-1/2 expression and activation, OV-MZ-6 cells; details: for p-FAK, transient elevation, n-fold of untreated cells: concentration not specified
Procedure: Since agonistic ligand performance requires integrin activation and signaling, by Western blot analysis, we studied whether the different ligands alter the expression levels and activation states of FAK and p44/42^(erk-1/2). For this, the respective target integrin-expressing tumor cell types were incubated with the corresponding subtype-selective ligand at a concentration of 1 μM for 24 h (Figure 8). […] Signal intensities of FAK and p44/42^(erk-1/2) expression and activation (p-FAK and p-p44/42^(erk-1/2)) on Western blots were evaluated by densitometry. Data are depicted as GAPDH-normalized fluorescence signal intensities as n-fold, by setting values obtained for the respective untreated cells to “1”. […] MAPK p44/42^(erk-1/2) expression was approximately 2.2-fold augmented, p44/42^(erk-1/2) by approximately 2.5-fold. It also raised activation of p-FAK and p-p44/42^(erk-1/2) by approximately 2.2-fold and 3.1-fold, respectively, in α5β1+ OV-MZ-6 cells. […] Additionally, it raised FAK (approximately 1.7-fold) and p-p44/42^(erk-1/2) (approximately 2.4-fold) in α5β1+ OV-MZ-6 cells.
Figure 8 Effects of ligands on cellular expression and activation of integrin-related signaling molecules FAK and p44/42^(erk-1/2). […] Signal intensities for FAK and p-FAK, respectively, were evaluated by use of the Bio-Rad Imager Gel Doc XR+ and a ChemiDoc XRS+ Systems and the software Image Lab. Shown are typical representative Western blot images and the corresponding histograms depicting GAPDH-normalized signal intensities as n-fold by setting the values obtained for untreated cells to “1” (drawn as black line). For each cell line, cutouts of identical gels are depicted.
In order to capture early and transient changes in signaling activation following ligand treatment, we next reduced the observation periods to 5, 30, or 60 min and assessed FAK expression and activation. […] Depicted are typical Western blot images and the corresponding densitometrical evaluations of GAPDH-normalized signal intensities as n-fold, by setting that of the respective untreated cell type to “1” (Figure 9). […]
The kinases (p-)p44/42^(erk-1/2) and (p-)FAK were detected as previously published.[15],[8] Briefly, cells were grown for 18 h on six-well plates in DMEM (0.45 Mio cells/well). After medium exchange, fresh medium with L1–L5 (concentration: 1.0 μM, 2 mL/well) was added, and cells were incubated for another 24 h at 37 °C. In a second series, cells were incubated with L1–L5 (1 μM or 1 nM) for 5, 30, or 60 min. Thereafter, the cellular proteins were extracted and processed by Western blotting. Proteins were visualized using the Pierce ECL chemiluminescent substrate (Thermo Fisher Scientific). Band signal intensities for (p-)p44/42^(erk-1/2) and (p-)FAK were evaluated using the Bio-Rad Imager Gel Doc XR + and ChemiDoc XRS + Systems and the software Image Lab. Differences in protein loading and blotting efficiency were normalized by reprobing the membranes with a monoclonal antibody directed to GAPDH. Signal intensities for protein bands of interest were normalized to those recorded for GAPDH. Typical Western blot images are depicted together with histograms summarizing the mean values of normalized fluorescence signal intensities as n-fold, by setting those obtained for untreated cells to “1”.

αvβ3+ M21 cells = experiment: Wound scratch cell migration assay, M21 cells
Procedure: (§1) As a biological readout for integrin signaling, we analyzed ligand effects on cell adhesion and migration by wound scratch assays (Figure 10A,B). […] Microscopical images were taken directly after wounding the cell monolayers and then after 9, 24, 48, and 72 h, respectively.
(§2) Figure 10 (A) Effect of integrin ligands on cancer cell migration. […] Microscopical measurements of wound gaps were taken directly after setting the wound scratch and then after 9, 24, 48, and 72 h, respectively. Wound scratch assays were repeated at least three times. The extent of wound gap closure [%]/cell coverage was calculated by a python script utilizing Canny’s Edge Detection algorithm as described under Materials and summarized in the corresponding histograms (see also Scheme S5 in the Supporting Information). (B) Adhesion of M21, OV-MZ-6, and HN cells in the presence of the respective integrin targeting ligand at low (1 nM) and high (1 μM) concentrations. […] Depicted are typical microscopical images of the respective cell monolayers.
(§3) The assays were performed according to a modified protocol as previously published.[94] Cells were cultivated on fibronectin-coated 12-well cell culture plates until cell monolayers reached an approximately 80% confluency. Then, the wound scratch was set utilizing a 200 μL pipet tip. Subsequently, fresh culture medium was added in the absence or presence of L1–L5 (concentration: 1 μM or 1 nM), and microscopical images (Zeiss, Oberkochen, Germany) were taken at two identical positions of the wound gap directly after wounding and then at 9, 24, 48, or 72 h of further cell cultivation. Each wound scratch assay was repeated three times. A custom python script was implemented to analyze wound gap closure over time: after cropping the images, we used the OpenCV[95] implementation of Canny’s Edge Detection Algorithm[96] to ensure reliable measurements even with variable lighting conditions.[97] As a first step, a 5 × 5 Gaussian filter was applied to remove background noise. The smoothened images were then filtered by a Sobel kernel[98] and the magnitude and direction of the intensity gradient of the images calculated. Then, a non-maximum suppression algorithm was applied to identify relevant pixels that presumably contribute to edges. In a final step, threshold hysteresis was utilized to distinguish true edges from variations in intensity or the remaining background noise. The resulting images were then segmented and binarized by use of a grid filter and analyzed with respect to cell-covered area relative to the start image of each series.

α5β1+ OV-MZ-6 cells = experiment: Wound scratch cell migration assay, OV-MZ-6 cells; details: for Effect on wound gap closure / cell migration: OV-MZ-6 cells
Procedure: as §1, §2, §3
Scheme S5. Effect of integrin ligands on cancer cell migration (control cells to Fig. 10A in the main manuscript). a) Integrin αvβ3- OV-MZ-6 cells, α5β1- M21 cells, α5β1+ and αvβ3- and […]
mages of wound gaps were taken directly after setting the wound scratch and then after […], respectively. Wound scratch assays were repeated at least 3 times. The extent of wound gap closure [%]/cell coverage was calculated by a python script utilizing Canny’s Edge Detection algorithm11 as described in the Experimental Section and summarized in the corresponding histograms.
(1 picture or pasted object on this page, not shown here)

[2] = concentration not specified or both, within 60 min

Row | Molecule | FAK, n-fold of untreated cells ([1]; 1 μM, 24 h, GAPDH-normalized) | p-p44/42erk-1/2, n-fold of untreated cells ([1]; 1 μM, 24 h, GAPDH-normalized) | FAK expression versus untreated cells [1, 2] | p-FAK, transient elevation, n-fold of untreated cells ([1]; within 60 min) | Effect on wound gap closure / cell migration (αvβ3+ M21 cells; 1 nM) | Effect on wound gap closure / cell migration (αvβ3+ M21 cells; 1 μM) | Cell coverage (wound gap closure) (αvβ3+ M21 cells; 1 μM, within 72 h) | Effect on wound gap closure / cell migration (α5β1+ OV-MZ-6 cells; 1 nM) | Effect on wound gap closure / cell migration (α5β1+ OV-MZ-6 cells; 1 μM) | FAK levels, n-fold of untreated cells ([1]; 1 nM, 5, 30 or 60 min) | p-FAK, highest or initial elevation, n-fold of untreated cells ([1]; 1 nM, 5, 30 or 60 min) | p-FAK, highest induction at 30 min, n-fold of untreated cells ([1]; 1 μM) | FAK expression versus untreated cells ([1]; 1 μM, 5, 30 or 60 min) | (p-)FAK and (p-)p-44/42erk-1/2 ([1]; 1 μM, 24 h) | Effect on wound gap closure (α5β1+ OV-MZ-6 cells; αvβ6- OV-MZ-6 cells, concentration not specified)
1 | C#CCCC(=O)NCCCOc1ccc(C(=O)N[C@H](CC(=O)O)Cc2ccc(OCCCNc3cc(OC)ccn3)cc2)cc1 [L1, (S)-4-(4-(3-((4-Methoxypyridin-2-yl)amino)propoxy)phenyl)-3-(4-(3-(pent-4-ynamido)propoxy)benzamido)butanoic Acid] | approximately 1.7 fold | approximately 2.4 fold | transient slight increase | approximately twofold | enhanced wound gap closure | less effective than cilengitide (L2) in blocking cell migration | approximately 80% | not observed | more efficient blockade of cell migration than in M21 cells |  |  |  |  |  | 
2 | C#CCCC(=O)NCCCOc1cc(C)c(C(=O)N[C@@H](CNC(=O)CNC(=O)c2cccc(NC(=N)N)c2)C(=O)O)c(C)c1 [L5, (S)-2-(2,6-Dimethyl-4-(3-(pent-4-ynamido)propoxy)benzamido)-3-(2-(3-guanidinobenzamido)acetamido)propanoic Acid] |  |  |  |  | did not alter their migratory capacity | no abrogation of cell migration was observed |  | did not alter their migratory capacity | blocked migration | approximately 1.6 fold | approximately threefold | approximately fourfold | equal to or only slightly higher than that in untreated cells | did not modulate | 
3 | c(FRGDLAFp(NMe)K) [L3] |  |  | no effect | approximately 2.9 fold |  |  |  |  |  |  |  |  |  |  | delayed wound gap closure

Source: article PMC11874007, “Switching Roles—Exploring Concentration-Dependent Agonistic versus Antagonistic Behavior of Integrin Ligands” (Journal of Medicinal Chemistry, 2025)
